Experimental data as given in paper PMC10222328 (Pharmaceuticals, 2023).

Columns and labels:
[1] = target: T1, 5-LOX (Homo sapiens, UniProt P09917); experiment: Fluorometric 5-LOX inhibitor screening kit; format: biochemical; conditions: mean ± standard error of two measurements; for inhibition at 10 µM: read-out: 5-LOX Percent of Inhibition
T1 construct: purchased Abcam, UK
T1 sequence (P09917 1-674): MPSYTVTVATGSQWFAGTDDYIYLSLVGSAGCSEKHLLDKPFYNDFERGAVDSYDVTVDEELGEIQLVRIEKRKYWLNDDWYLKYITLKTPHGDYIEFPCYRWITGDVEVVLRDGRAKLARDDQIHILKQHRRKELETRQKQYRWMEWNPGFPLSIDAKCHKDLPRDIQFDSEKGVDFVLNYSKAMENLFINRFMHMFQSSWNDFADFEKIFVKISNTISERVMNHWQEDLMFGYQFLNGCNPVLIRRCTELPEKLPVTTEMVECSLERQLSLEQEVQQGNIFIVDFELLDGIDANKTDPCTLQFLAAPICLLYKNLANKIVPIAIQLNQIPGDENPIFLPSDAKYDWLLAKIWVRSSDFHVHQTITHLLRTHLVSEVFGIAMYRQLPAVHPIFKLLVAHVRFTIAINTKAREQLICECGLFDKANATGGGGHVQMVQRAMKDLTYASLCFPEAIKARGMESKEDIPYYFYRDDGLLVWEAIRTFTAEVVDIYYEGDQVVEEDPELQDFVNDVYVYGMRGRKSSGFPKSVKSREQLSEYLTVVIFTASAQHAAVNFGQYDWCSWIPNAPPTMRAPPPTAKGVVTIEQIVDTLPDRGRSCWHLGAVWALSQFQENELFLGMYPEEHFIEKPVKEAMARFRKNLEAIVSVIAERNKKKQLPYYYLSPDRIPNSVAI
Experimental: COX-2 and 5-LOX inhibitory activities were tested using fluorometric COX-2 and 5-LOX inhibitor screening kits (Abcam, UK). These assays are based on the fluorometric detection of Prostaglandin G2 (a product generated by the COX enzyme) or on the fluorometric detection of intermediate generated by the 5-LOX enzyme. The experiments were conducted according to the manufacturers’ instructions.
For the determination of COX-2 inhibitory activity, tested compounds were dissolved in DMSO (5 mM stock solutions) and then diluted with the same solvent to obtain test solutions. Test solutions were further diluted 5X with COX assay buffer (2 µL of test solution and 8 µL COX assay buffer). […] Solvent control (SC) was prepared by adding 2 µL DMSO and 8 µL COX assay buffer, while sample (S) and enzyme control (EC) were prepared by adding 10 µL of diluted test solution and COX assay buffer, respectively, into assigned wells. For the determination of 5-LOX inhibitory activity, tested compounds were also dissolved in DMSO to prepare stock solutions with the same concentration (5mM), which were then diluted with the same solvent to obtain test solutions. Subsequently, test solutions were added to corresponding wells (2 µL).

[2] = system: carrageenan-induced rat paw edema; experiment: Carrageenan-induced rat paw edema model; format: in vivo, Wistar albino rats; conditions: for Rat paw thickness: mean ± SD; for inhibition in vivo at 2.5 mg/kg / inhibition in vivo at 5 mg/kg / inhibition in vivo at 10 mg/kg: Rattus norvegicus, po
Experimental: In vivo assessment of anti-inflammatory activity of compounds 1–7 was conducted in the carrageenan-induced rat paw edema model. Inflammation in all rats was induced by an intraplantar injection of […] of 0.5% carrageenan saline in the left hind paw. Two hundred male Wistar albino rats (180–210 g) were divided into seven experimental (n = 168 rats, 8 rats per subgroup) and two control groups (n = 32 rats, 8 rats per subgroup).
Experimental groups involved rats that received compounds 1–7, and they were divided into three subgroups: rats received compounds 1–7 per os in three doses (2.5 mg/kg, 5 mg/kg, and 10 mg/kg) dissolved in 1% DMSO for 60 min before inducing inflammation.
In order to quantify the anti-inflammatory effect, the thickness of the left paw tissue of each rat was measured at the following time intervals: immediately before inducing inflammation (moment 0) and 1, 2, 3, and 4 h (moments 1, 2, 3, and 4) after inflammation. Tissue thickness was measured in the middle of the rat paw using a digital vernier caliper (Aerospace, Beijing, China).

[3] = Acute oral toxicity evaluation in rats; format: in vivo, Wistar albino rats; conditions: single oral dose 10 mg/kg, after 14 days, (absolute organ weight × 100%)/body weight
Experimental: Healthy male rats (n = 24, three rats per group, body weight 180–200 g) were used for conducting an acute oral toxicity study. Animals were divided into the following groups: a control group that included rats that received a single dose of 1% DMSO and experimental groups that involved rats that received compounds 1–7 in the single dose of 10 mg/kg.
After oral administration of the aforementioned agents, rats were kept in single cages and monitored during 14 days. Food and water intake, as well as body weight, were measured daily. All the behavioral changes and any signs of toxicity were monitored daily during 2-week protocol (fur and skin, eyes, salivation, respiration, urination (color), faeces consistency, somatomotor activity, and other alterations in behavior pattern). After accomplishing 14 days, animals were sacrificed and organ weight (liver, kidney, stomach, and heart) was recorded. Relative organ weight was calculated as follows:(absolute organ weight × 100%)/body weight of rat on the day of sacrifice.(1)

[4] = 2.5 mg/kg per os, 1 h after carrageenan
[5] = 2.5 mg/kg per os, 2 h after carrageenan
[6] = 2.5 mg/kg per os, 3 h after carrageenan
[7] = 2.5 mg/kg per os, 4 h after carrageenan
[8] = 5.0 mg/kg per os, 1 h after carrageenan
[9] = 5.0 mg/kg per os, 2 h after carrageenan
[10] = 5.0 mg/kg per os, 3 h after carrageenan
[11] = 5.0 mg/kg per os, 4 h after carrageenan
[12] = 10.0 mg/kg per os, 1 h after carrageenan
[13] = 10.0 mg/kg per os, 2 h after carrageenan
[14] = 10.0 mg/kg per os, 3 h after carrageenan
[15] = 10.0 mg/kg per os, 4 h after carrageenan
[16] = 1 h, 2.5 mg/kg per os, 1 h after carrageenan
[17] = 1 h, 5.0 mg/kg per os, 1 h after carrageenan
[18] = 1 h, 10.0 mg/kg per os, 1 h after carrageenan
[19] = 2 h, 2.5 mg/kg per os, 2 h after carrageenan
[20] = 2 h, 5.0 mg/kg per os, 2 h after carrageenan
[21] = 2 h, 10.0 mg/kg per os, 2 h after carrageenan
[22] = 3 h, 2.5 mg/kg per os, 3 h after carrageenan
[23] = 3 h, 5.0 mg/kg per os, 3 h after carrageenan
[24] = 3 h, 10.0 mg/kg per os, 3 h after carrageenan
[25] = 4 h, 2.5 mg/kg per os, 4 h after carrageenan
[26] = 4 h, 5.0 mg/kg per os, 4 h after carrageenan
[27] = 4 h, 10.0 mg/kg per os, 4 h after carrageenan

Row | SMILES | inhibition at 10 µM [1] | Rat paw thickness [2, 4] | Rat paw thickness [2, 5] | Rat paw thickness [2, 6] | Rat paw thickness [2, 7] | Rat paw thickness [2, 8] | Rat paw thickness [2, 9] | Rat paw thickness [2, 10] | Rat paw thickness [2, 11] | Rat paw thickness [2, 12] | Rat paw thickness [2, 13] | Rat paw thickness [2, 15] | inhibition in vivo at 2.5 mg/kg [2, 16] | inhibition in vivo at 5 mg/kg [2, 17] | inhibition in vivo at 10 mg/kg [2, 18] | inhibition in vivo at 2.5 mg/kg [2, 19] | inhibition in vivo at 5 mg/kg [2, 20] | inhibition in vivo at 10 mg/kg [2, 21] | inhibition in vivo at 2.5 mg/kg [2, 22] | inhibition in vivo at 5 mg/kg [2, 23] | further results
1 | COc1cccc(NC(=S)NC(=O)[C@@H](C)c2ccc3cc(OC)ccc3c2)c1 [Compound 4, (S)-2-(6-methoxynaphthalen-2-yl)-N-((3-methoxyphenyl)carbamothioyl)propanamide] | 77.2 ± 0.26% | 5.93 ± 0.25 mm | 5.40 ± 0.10 mm | 5.17 ± 0.15 mm | 4.90 ± 0.10 mm | 6.10 ± 0.44 mm | 5.97 ± 0.25 mm | 5.70 ± 0.46 mm | 5.22 ± 0.50 mm | 6.00 ± 0.10 mm | 5.70 ± 0.20 mm | 4.90 ± 0.20 mm | 21.6% | 29.9% | 27.1% | 37.2% | 28% | 32.6% | 37.9% | 28.8% | IC50 [1]: 0.3 ± 0.12 µM; Rat paw thickness [2, 14]: 5.30 ± 0.17 mm; inhibition in vivo at 10 mg/kg [2, 24]: 41.5%; inhibition in vivo at 2.5 mg/kg [2, 25]: 40.5%; inhibition in vivo at 5 mg/kg [2, 26]: 43.2%; inhibition in vivo at 10 mg/kg [2, 27]: 54%; Relative organ weight, heart [3]: 0.30 ± 0.03; Relative organ weight, kidney [3]: 0.33 ± 0.07; Relative organ weight, liver [3]: 2.45 ± 0.15; Relative organ weight, stomach [3]: 0.50 ± 0.05
2 | COc1ccc2cc([C@H](C)C(=O)NC(=S)Nc3ccc(C(C)=O)cc3)ccc2c1 [Compound 5, (S)-N-((4-acetylphenyl)carbamothioyl)-2-(6-methoxynaphthalen-2-yl)propanamide] | 46.2 ± 4.87% | 5.73 ± 0.12 mm | 5.37 ± 0.25 mm | 5.20 ± 0.20 mm | 4.57 ± 0.15 mm | 5.05 ± 0.07 mm | 4.85 ± 0.07 mm | 4.40 ± 0.14 mm | 3.95 ± 0.07 mm | 5.5 ± 0.71 mm | 5.35 ± 0.64 mm | 4.75 ± 0.49 mm | 10.7% | 19.6% | 38.1% | 17.2% | 19.5% | 37.9% | 10.5% | 28.8% | IC50 [1]: 16.7 ± 1.79 µM; inhibition in vivo at 10 mg/kg [2, 24]: 39.7%; inhibition in vivo at 2.5 mg/kg [2, 25]: 31%; inhibition in vivo at 5 mg/kg [2, 26]: 41.4%; inhibition in vivo at 10 mg/kg [2, 27]: 47 to 54%; Relative organ weight, heart [3]: 0.31 ± 0.03; Relative organ weight, kidney [3]: 0.30 ± 0.03; Relative organ weight, liver [3]: 2.97 ± 0.33; Relative organ weight, stomach [3]: 0.53 ± 0.04
3 | CCOC(=O)C(Cc1ccccc1)NC(=S)NC(=O)C(C)c1ccc2cc(OC)ccc2c1 [Compound 6, Ethyl(((S)-2-(6-methoxynaphthalen-2-yl)propanoyl)carbamothioyl)-L-phenylalaninate] | 23.6 ± 2.14% | 6.17 ± 0.31 mm | 5.87 ± 0.23 mm | 5.37 ± 0.55 mm | 4.93 ± 0.21 mm | 6.47 ± 0.57 mm | 6.17 ± 0.06 mm | 5.77 ± 0.06 mm | 5.27 ± 0.21 mm | 6.20 ± 0.20 mm | 6.17 ± 0.23 mm | 5.03 ± 0.76 mm | 11.8% | 17.5% | 21.6% | 15.7% | 21.8% | 14.2% | 26.9% | 28.8% | Rat paw thickness [2, 14]: 5.27 ± 0.72 mm; inhibition in vivo at 10 mg/kg [2, 24]: 47.1%; inhibition in vivo at 2.5 mg/kg [2, 25]: 37.9%; inhibition in vivo at 5 mg/kg [2, 26]: 44.7%; inhibition in vivo at 10 mg/kg [2, 27]: 49.4%; Relative organ weight, heart [3]: 0.34 ± 0.02; Relative organ weight, kidney [3]: 0.35 ± 0.05; Relative organ weight, liver [3]: 3.01 ± 0.29; Relative organ weight, stomach [3]: 0.55 ± 0.03
